Test results taken from patent US9226928B2, “Spirocyclic isoxazoline parasiticidal combinations” (Zoetis Services LLC, priority 2012, dated 2016).
Read-outs that look alike come from different tables or passages of the source.

Columns and labels:
[1] = Combination pharmacokinetics in fed dogs; conditions: dog, in vivo, sampling to 28 days
C. felis fleas = assay: Efficacy against fleas in dogs; conditions: all time points (Days 1-35); same groups
Description: Each dog was infested with approximately 100 unfed viable adult C. felis fleas on Days −1, 6, 13, 20, 27, and 34. Efficacy was assessed by comb counts of live fleas on Days 1, 7, 14, 21, 28, and 35. Efficacy was determined as the % reduction in geometric mean live flea counts versus placebo.

[2] = system: Dirofilaria immitis microfilariae (MF), Michigan strain; assay: In vitro motility assay, D. immitis microfilariae
Description: Antiparasitic compounds were dissolved in DMSO and were spotted into the well of a 384 well microtiter plate. Nematodes in a buffered solution were added to the plates and motility measured at 96 hours for the H. contortus strains and 72 hours for D. immitis. […] MED was subjective based on visual assessment using light microscopy and was the lowest dose to cause a significant decrease in motility. Concentrations at ½ log below the MED were used alone and in combination and were read on the LemnaTec Scanalyzer to provide a quantitative percent motility compared to the negative control.
Material and method for the Dirofilaria immitis in vitro assay: Dirofilaria immitis MF were purified from microfilaremic canine blood by erythrocyte lysis and filtration and maintained in a cell culture media fortified with fetal bovine serum and antibiotics. […] The motility assessment was performed after 72 hours of incubation at 37° C. and 5% CO2 on a LemnaTec Scanalyzer which determined motility of the MF by image analysis.

[3] = system: tick (O. turicata, Zoetis strain); assay: In-vitro tick feeding assay; format: cell-based, Ornithodoros turicata; conditions: for MED (lowest dose to cause paralysis ≧50%): at 24, 28, and 72 hours post feeding
flea (C. felis) = assay: In-vitro flea feeding assay; format: cell-based, Ctenocephalides felis; conditions: for lowest MED alone (lowest dose to cause mortality ≧50%) / control MED dose levels alone (triple combination assay): compound alone; for lowest MED alone (lowest dose to cause mortality ≧50%): 24 hours blood feeding; for control MED dose levels alone (triple combination assay): controls of the triple combination assay
[4] = system: Haemonchus contortus L3 susceptible strain; assay: In vitro motility assay, H. contortus L3 susceptible strain; format: cell-based
[5] = system: D. immitis (L3 inoculation, adult worm recovery); assay: Prevention of heartworm disease in dogs; conditions: in vivo, po
[6] = minimum efficacious dose, visual motility assessment, 72 hours
[7] = vs untreated control, 72 hours, LemnaTec, moxidectin 3.3 μM, pyrantel 33 μM, Compound A 10 μM, alone or combined (triple row prints 100 μM Compound A)
[8] = minimum efficacious dose, visual motility assessment, 96 hours
[9] = vs untreated control, 96 hours, LemnaTec, moxidectin 0.1 μM, pyrantel 10 μM, Compound A 100 μM, alone or combined

SMILES	AUC ([1]; dosed alone: Compound A 2 mg/kg, moxidectin 0.25 μg/kg, pyrantel pamoate 5 mg/kg)	AUC ([1]; the three compounds dosed simultaneously)	Percentage reductions in geometric and arithmetic mean live flea counts compared with placebo (C. felis fleas)	% Motility [2]	D. immitis MED [2]	MED (lowest dose to cause paralysis ≧50%) [3]	lowest MED alone (lowest dose to cause mortality ≧50%) (flea (C. felis))	control MED dose levels alone (triple combination assay) (flea (C. felis))	% Motility [4]	H. contortus L3 susceptible MED [4]	geometric mean adult D. immitis worm count [5]	D. immitis MED [2, 6]	% Motility [2, 7]	H. contortus L3 susceptible MED [4, 8]	% Motility [4, 9]	effect on ticks ([3]; at a rate of 3 or 30 ug/mL)	effect on fleas (flea (C. felis); highest dose tested (300 mM))
CS(=O)(=O)CC(=O)N1CC2(C1)OCc1cc(C3=NO[C@@](c4cc(Cl)c(F)c(Cl)c4)(C(F)(F)F)C3)ccc12 [Compound A, (S)-1-(5′-(5-(3,5-dichloro-4-fluorophenyl)-5-(trifluoromethyl)-4,5-dihydroisoxazol-3-yl)-3′H-spiro[azetidine-3,1′-isobenzofuran]-1-yl)-2-(methylsulfonyl)ethanone]	202 µg·h/mL	206 µg·h/mL	100%	50.9%	33 µM	0.01 µg/mL	0.0001 mM	0.3 mM	76.0%	>100 µM	30.3 worms recovered from each dog	–	–	–	–	–	–
CO/N=C1\C[C@]2(C[C@@H]3C[C@@H](C/C=C(\C)C[C@@H](C)/C=C/C=C4\CO[C@@H]5[C@H](O)C(C)=C[C@@H](C(=O)O3)[C@]45O)O2)O[C@H](/C(C)=C/C(C)C)[C@H]1C [Moxidectin, moxidectin]	–	–	–	–	–	0.03 µg/mL	0.01 mM	10 mM	–	–	–	10 µM	62.0%	0.3 µM	95.0%	–	–
CN1CCCN=C1/C=C/c1cccs1 [Pyrantel, pyrantel pamoate]	–	–	–	–	–	–	–	> 300 mM	–	–	–	100 µM	77.8%	33 µM	95.6%	no effect	no effect
